Data as given in patent US9872904B2, “Photoimmunoconjugates for use in photodynamic therapy” (Fraunhofer-Gesellschaft zur Foerderung der angewandten …, priority 2012, dated 2018).

Key:
[1] = system: EGFR^− cell lines L540 and CHO-K1; assay: Confocal microscopy binding and internalization, EGFR^− cells; type: cell-based, human; settings: 4° C. and 37° C.
Protocol: (§1) Images were visualized with a TCS SP5 confocal microscope (LEICA Microsystem, Wetzlar, Germany). Cells were prepared as described above for flow cytometry. Binding efficiency was determined by incubating cells with the labeled fusion proteins for 30 min on ice. Internalization was monitored by incubating cells with the labeled fusion proteins for 30 min at 37° C.

[2] = system: A431, MDA-MB-231, MDA-MB468 and SiHa cells; assay: Confocal microscopy binding and internalization, EGFR^+ cells; type: cell-based, human
Protocol: as §1

[3] = system: A431 cells; assay: ROS generation (carboxy-H2DCFDA fluorescence) in photosensitized A431 cells; type: cell-based, human; settings: 200 nM
Protocol: (§2) Caspase-3/7 activity in cell lysates was determined using the Apo-ONE Caspase-3/7 assay (Promega, Mannheim, Germany) 24 h after light activation. […] The cells were washed twice with warm PBS containing 2.5% FCS, cultured for 2 h in […] medium and illuminated as described above. Fluorescence readings were taken directly after illumination. A blank probe (cells and medium) reading was used as the background and subtracted from all the sample readings.

[4] = system: CHO-K1; assay: XTT cell proliferation assay (phototoxicity), CHO-K1 negative control; type: cell-based, Chinese hamster; settings: CHO-K1 exposed to 800 nM; with light activation
Protocol: All cell lines were […], including the EGFR^+ A431, MDA-MB-231, MDA-MB468 and SiHa cells, and the EGFR^− L540, CHO-K1 and HEK-293T cells. A431, L540, CHO-K1 and HEK-293T cells were cultured in RPMI-1640 medium supplemented with 2 mM L-glutamine, 10% (v/v) fetal bovine serum (FBS) and 100 U/ml penicillin-streptomycin. MDA-MB-231, MDA-MB468 and SiHa cells were cultured in DMEM with 10% (v/v) fetal bovine serum (FBS) and 100 U/ml penicillin-streptomycin. All cells were incubated at 37° C. in a 5% CO2 atmosphere. All media and additives were obtained from Invitrogen, Darmstadt, Germany.
(§3) Control cultures were incubated with 500 μg/ml zeocin instead of the photosensitizer. The cells were then irradiated with 24 J/cm^2 broadband visible/near infrared light using Hydrosun type 505, 7-mm water cuvette and orange filter OG590, spectrum in the range 580-1400 nm (Hydrosun Medizintechnik GmbH, Müllheim, Germany) and incubated for a further 24 h at 37° C. in a 5% CO2 atmosphere.
Cell viability was determined using the XTT cell proliferation kit II (Roche, Mannheim Germany), 24 h after light activation. […] Reduction of XTT to formazan by viable tumor cells was monitored colorimetrically at an absorbance wavelength of 450 nm and a reference wavelength of 630 nm using an ELISA plate reader Elisareader ELx808 (Bio-TEK, Bad Friedrichsahll, Germany).

[5] = system: caspase-3 and caspase-7; assay: Apo-ONE Homogeneous Caspase-3/7 Assay; type: cell-based, human; settings: 200 nM; 24 h after light activation; A431, MDA-MB-231, MDA-MB468, SiHa and CHO-K1 cells analyzed
Protocol: as §3
as §2, with “activation. Briefly, 100 μl of Apo-ONE reagent was added to the cells, and they were incubated for 6 h before fluorescence readings were taken with an ELISA plate reader Elisareader ELx808 (Bio-TEK, Bad Friedrichsahll, Germany) using an excitation wavelength of 485 nm and an emission wavelength of 535 nm. The concentration of ROS was determined by measuring the 485/535 nm fluorescence ratio of H2DCFDA (Invitrogen, Darmstadt, Germany).” for “activation.”

## scFv-425-SNAP-Ce6
[1]
  Ce6 fluorescence signal (confocal microscopy): no signal was detected
[2]; 0.5 μg, 30 min at 4° C.
  membrane staining (confocal microscopy): strong, specific and homogeneous membrane staining
[2]; 30-min incubation at 37° C.
  internalization (uptake into cells, confocal microscopy): specifically and efficiently taken up
[3]; after light activation
  ROS synthesis (DCF 485/535-nm fluorescence): burst of ROS synthesis
[3]; non-irradiated cells
  ROS levels (DCF 485/535-nm fluorescence): only a small increase in ROS levels
[4]
  cell viability: remained unaffected
[5]
  levels of caspase-3 and caspase-7: increased
